# In patent US10604512B2, “3-(1H-indol-2-yl)-1H-indazoles and therapeutic uses thereof” (Samumed, LLC, priority 2015, dated 2020):
# Assays:
# IL-6 = experiment: Inhibition of IL-6 in LPS-stimulated THP-1 human monocyte cells (HTRF); assay type: cell-based; settings: for EC50: IL-6 inhibition, LPS-stimulated THP-1 cells, HTRF; for inhibition at 10 µM: THP-1, printed beside >10 μM EC50, top concentration 10 μM, meaning not given, read-out: percentage in parentheses after EC50 >10
# In short: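 THP-1 cells serum-reduced (1% FBS, 24 h), then 5000 cells/well preincubated 2 h with compound (10-point 1:3 series from 10 μM, 0.1% DMSO) before 500 ng/mL LPS for 22 h at 37 °C. Secreted IL-6 quantified by HTRF 665/620 ratio; DMSO-normalised duplicates fitted to four-parameter EC50; above 10 μM, % inhibition at 10 μM given.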
# [1] = tested on: primary human mesenchymal stem cells (hMSCs); experiment: Induction of chondrogenesis in primary human mesenchymal stem cells (nodule imaging, Rhodamine B / Nile Red); assay type: cell-based
# In short: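 hMSCs (passage 3–6) in incomplete chondrogenic induction medium dosed at 2700–10 nM (96-well) or 5000–2.2 nM (384-well), 0.03% DMSO, for 6 days at 37 °C. Fixed cells stained with Rhodamine B/Nile Red and nodule area imaged, normalized to DMSO wells (fold change). EC50 set against TGF-β3 (10 ng/mL); maximum activity and its dose also reported.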
SMILES,EC50 (IL-6),inhibition at 10 µM (IL-6),"EC50 ([1]; concentration required to induce 50% levels of chondrogenesis vs TGF-β3 positive control, read-out: Conc (nM) of 50% TGF-β3 activity)","Emax ([1]; maximum chondrogenesis activity relative to TGF-β3 (10 ng/mL) positive control, read-out: Max. Activity as % TGF-β3 activity)"
"Fc1cccc(-c2cccc3[nH]c(-c4n[nH]c5ccc(-c6ccncc6)cc45)cc23)c1 [Compound 18, 3-(4-(3-Fluorophenyl)-1H-indol-2-yl)-5-(pyridin-4-yl)-1H-indazole]",31 nM,–,–,–
"CC(C)(C)CC(=O)Nc1cncc(-c2ccc3[nH]nc(-c4cc5c(-c6ccsc6)cccc5[nH]4)c3c2)c1 [Compound 296, 3,3-Dimethyl-N-(5-(3-(4-(thiophen-3-yl)-1H-indol-2-yl)-1H-indazol-5-yl)pyridin-3-yl)butanamide]",> 10000 nM,31.6%,–,–
"O=C(Nc1cncc(-c2ccc3[nH]nc(-c4cc5c(-c6ccsc6)cccc5[nH]4)c3c2)c1)C1CCCCC1 [Compound 303, N-(5-(3-(4-(Thiophen-3-yl)-1H-indol-2-yl)-1H-indazol-5-yl)pyridin-3-yl) cyclohexanecarboxamide]",> 10000 nM,43.9%,–,–
"Nc1cncc(-c2ccc3[nH]nc(-c4cc5c(-c6ccoc6)cccc5[nH]4)c3c2)c1 [Compound 311, 5-(3-(4-(Furan-3-yl)-1H-indol-2-yl)-1H-indazol-5-yl)pyridin-3-amine]",519 nM,–,10 nM,197%
"O=C(Cc1ccccc1)Nc1cncc(-c2ccc3[nH]nc(-c4cc5c(-c6ccoc6)cccc5[nH]4)c3c2)c1 [Compound 318, N-(5-(3-(4-(Furan-3-yl)-1H-indol-2-yl)-1H-indazol-5-yl)pyridin-3-yl)-2-phenylacetamide]",304 nM,–,–,–
"c1cc(-c2ccoc2)c2cc(-c3n[nH]c4ccc(-c5cncc(CNCC6CCCC6)c5)cc34)[nH]c2c1 [Compound 333, 1-Cyclopentyl-N-((5-(3-(4-(furan-3-yl)-1H-indol-2-yl)-1H-indazol-5-yl)pyridin-3-yl)methyl)methanamine]",7580 nM,–,–,–
